In patent US9518104B2, “Compositions and methods for treating multiple sclerosis” (Centre for Addiction and Mental Health, priority 2012, dated 2016):
Where no end group is shown, it is not given here.

Assays:
EAE = settings: Shijie et al. 2009; cited from earlier work
EAE in rats = settings: direct application (Smith et al.); cited from earlier work
activated T-cells = settings: Pitt et al.; cited from earlier work
inflammation = settings: EAE (Pitt et al.); cited from earlier work
EAE mice = EAE mice (Fazio et al. 2008); cited from earlier work
GAPDH = target: T1, GAPDH (Rattus norvegicus, UniProt P04797); experiment: Pull-down affinity assay of GluR2-GAPDH interaction; type: binding; settings: solubilized rat hippocampal tissue, approximately 100 μg GST-fusion protein
T1 construct: Rat hippocampus was homogenized in 50 mM Tris-HCl (pH 7.5); from tissue; host or cells: rat hippocampus homogenate
T1 sequence (P04797 whole entry, the tested form may be a part): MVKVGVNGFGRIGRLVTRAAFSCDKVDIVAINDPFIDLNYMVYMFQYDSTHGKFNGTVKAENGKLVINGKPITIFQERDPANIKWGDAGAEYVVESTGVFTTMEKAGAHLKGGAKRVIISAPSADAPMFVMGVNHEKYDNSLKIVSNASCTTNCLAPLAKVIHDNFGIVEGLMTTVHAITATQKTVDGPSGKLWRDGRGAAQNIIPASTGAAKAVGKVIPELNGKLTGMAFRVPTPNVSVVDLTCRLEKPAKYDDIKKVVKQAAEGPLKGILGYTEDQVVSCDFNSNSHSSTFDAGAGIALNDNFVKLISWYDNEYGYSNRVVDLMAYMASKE
Method: Desired DNA sequences of the GluR2 N-terminus were obtained by polymerase chain reaction. The DNA sequences were digested with BamHI and Xhol enzymes to create sticky ends and subsequently incorporated into GST-plasmids (pGEX4T3) through DNA ligation. Following ligation, transformation with DH5a competent cells was performed to amplify the plasmid content. Subsequently, the plasmids were extracted and subjected to sequence confirmation. Having the desired DNA sequences confirmed, the GST-fusion proteins were expressed through the transformation with another strain of competent cells (i.e. BL21). The GST-fusion proteins were then precipitated and purified through glutathione resin (from Genescript).
Rat hippocampus was homogenized in 50 mM Tris-HCl (pH 7.5), 150 mM NaCl, 1% NP-40, 0.5% sodium deoxycholate, 1 mM EDTA, 10% Triton X-100, 1 mM PMSF and protease inhibitor cocktail (Sigma, 5 microl per 100 mg tissue). The hippocampal tissue was further solubilized with 1% Triton X-100 and then centrifuged at 14,000 rpm at 4° C. for 15 mins The solubilized hippocampal tissue (approximately 1 milligram of protein) was incubated with glutathione resin (Genescript) and indicated GST-fusion proteins (approximately 100 μg) at 4° C. overnight and followed by an hour of incubation at room temperature. After the incubation, the samples were washed 4-6 times with 1 mL PBS contained 0.1% Triton X-100. […]

Iba1+ cells = experiment: Iba1 immunolabeling of macrophages/microglia in EAE mouse spinal cord; type: in vivo; settings: EAE mice; compared to sham
Method: (§1) Frozen coronal sections of EAE mice spinal cord (10 μm) thickness were cut using a microtome cryostat system (Bright Instruments 5030). All sections were initially incubated in blocking solution (0.1 m PBS, 1% Triton X-100, 0.5% Tween 20, 2% skim milk) or serum-free protein block (Dako Cytomation) for 1 h at room temperature to reduce nonspecific background and then incubated with primary and secondary antibodies overnight at 4° C. The following primary antibodies were used: anti-Iba1 (1:200; Dako), anti-Neurofilament H (1:200), anti-CC1, anti-CNPase (1:200), and anti-NeuN (1:200). Fluorescent secondary antibodies conjugated to Alexa 488 or Rhodamine Red-X (1:200; Invitrogen) or Cy3 (1:100; Jackson ImmunoResearch Laboratories) were used for detection of primary antibodies.
As MS is closely associated with inflammation and autoimmunity, the TAT-G-Gpep peptide was tested to determine if it affects microglial/macrophage recruitment.

oligodendrocytes = experiment: CNPase- and CC1-labeled oligodendrocytes in EAE mouse spinal cord; type: in vivo; settings: EAE mice, dorsal regions of spinal cord; compared to sham
Method: as §1

myelin = experiment: Luxol Fast Blue staining of myelin in EAE mouse spinal cord; type: in vivo; settings: EAE mice spinal cord; compared to sham
Method: At day 30, mice were sacrificed by overdose anesthesia, and the spinal cord was dissected for co-immunoprecipitation analysis. For analysis of central nervous system infiltrates, brain and spinal cord tissues were collected and mononuclear cells were prepared by Percoll gradient centrifugation. For immunological analysis, splenocytes cells were dissected and cultured in vitro. For histological analysis, the same tissue samples were immediately fixed in 4% (wt/vol) paraformaldehyde. Frozen sections of spinal cord were stained with Luxol fast blue for analysis of […].

neurofilament-H = experiment: Neurofilament-H immunostaining, axonal density in EAE mouse spinal cord; type: in vivo; settings: EAE mice spinal cord; compared to sham
Method: as §1

GluR2-GAPDH interaction = settings: previously shown (PCT/CA2007/001539); cited from earlier work
Chain of GluR2-GAPDH interaction (P04406 whole entry, the tested form may be a part): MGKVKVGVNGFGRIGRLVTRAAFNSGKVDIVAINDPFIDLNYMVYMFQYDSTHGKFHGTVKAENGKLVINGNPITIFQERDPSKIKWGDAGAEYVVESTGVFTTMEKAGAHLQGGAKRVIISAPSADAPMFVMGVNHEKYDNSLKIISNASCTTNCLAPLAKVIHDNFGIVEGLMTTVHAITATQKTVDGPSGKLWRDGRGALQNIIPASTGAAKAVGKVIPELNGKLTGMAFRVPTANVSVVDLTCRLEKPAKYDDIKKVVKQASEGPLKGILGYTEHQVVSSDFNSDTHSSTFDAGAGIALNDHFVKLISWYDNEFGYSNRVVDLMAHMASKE

hippocampal neurons = settings: animal models of ischemic stroke; previously shown (PCT/CA2007/001539); cited from earlier work
cytokines = experiment: Bioplex, cytokine profiles in cultured spleenocytes re-stimulated with MOG35-55; type: in vivo, mice; settings: vs the other two groups
Method: Cytokine measurement was performed by Bioplex Protein Array (Bio-Plex Pro™ Mouse Cytokine 23-plex Assay) from Bio-Rad as per manufacturer's instruction. EAE mice serum, culture supernatant of spleenocytes in different treatment groups and supernatant of brain infiltrated leukocyte culture were used for bioplex protein array in duplicates. The standard curves were optimized automatically by the software (Bioplex manager) and verified manually. The Bioplex manager software was used to calculate cytokine concentrations. Data is expressed as Mean±SEM.

[N-]=[N+]=CC(=O)CC[C@H](N)C(=O)O [DON, 6-diazo-5-oxo-L-norleucine]
neurological effects of EAE (EAE): attenuated

O=c1[nH]c2cc(C(F)(F)F)c(N3CCOCC3)cc2n(CP(=O)(O)O)c1=O [MPQX]
acute and chronic neurological effects of EAE (EAE in rats): reduces the acute and chronic neurological effects of EAE

NS(=O)(=O)c1cccc2c1c([N+](=O)[O-])cc1nc(O)c(O)nc12 [NBQX]
acute and chronic neurological effects of EAE (EAE in rats): reduces the acute and chronic neurological effects of EAE
in vitro proliferation of activated T-cells (activated T-cells): did not reduce
amount of inflammation (inflammation): did not reduce

O=C(Nc1nc(C(F)(F)F)co1)C1c2ccccc2Oc2ccccc21 [RO0711401]
motor coordination (EAE mice): improves motor coordination

CC1(C)[C@@H](OC(=O)CCC(=O)O)CC[C@]2(C)[C@H]3C(=O)C=C4[C@@H]5C[C@@](C)(C(=O)O)CC[C@]5(C)CC[C@@]4(C)[C@]3(C)CC[C@@H]12 [carbenoxolone]
neurological effects of EAE (EAE): attenuated

GST alone: glutathione S-transferase alone, negative control
precipitation (pull down) of GAPDH (GAPDH): neither the GST alone nor the GST-fusion protein containing fragment 1 (Tyr142-Leu161 (SEQ ID NO:7)) sufficed to “pull down” GAPDH

GST-Fragment 2: GST fusion protein of fragment 2, Asp153-Lys172 of GluR2 N-terminus, DSDRGLSTLQAVLDSAAEKK (SEQ ID NO:5) (also: GST fusion protein)
precipitation (pull down) of GAPDH (GAPDH): able to precipitate GAPDH

YGRKKRRQRRRAFDLSQYDLKWQVDYLKYDYGTASELRASA (G-Gpep-sc or G-Gpep-scrambled) [TAT-G-Gpep-sc, scrambled G-Gpep control peptide fused to TAT domain]
number of Iba1+ cells in the dorsal and ventral horns (Iba1+ cells): significantly more macrophages/microglia
number of CNPase- and CC1-labeled oligodendrocytes (oligodendrocytes): significantly lower
demyelination (myelin in the ventral funiculus) (myelin): Significant demylenation
area occupied by neurofilament-H (neurofilament-H): significantly lower

YYQWDKFAYLYDSDRGLSTLQAVLDSAAEKK (GluR2 NT1-3-2) [G-Gpep, interfering peptide, GluR2 NT1-3-2 (Y142-K172)]
disruption of GluR2-GAPDH interactions (GluR2-GAPDH interaction): capable of disrupting GluR2-GAPDH interactions
protection of neurons from ischemia-induced cell death (hippocampal neurons): protecting neurons from ischemia-induced cell death
immunoreactivity of spleenocytes (most cytokines) (cytokines): significantly suppressed
